Results: article PMC7383509 (Clinical Pharmacology in Drug Development, 2019)
Several values for one entry are separate records, joined by “and”; a condition that tells them apart may be missing. Identical values can stand only once. Like-named read-outs stand apart in the source and are kept apart here.

Key:
[1] = remainder eliminated in the feces; cited from earlier work
[2] = human plasma; cited from earlier work
[3] = assay type: in vivo, human; settings: for AUC / clearance / Cmax / Vd / half-life: 0.5 mg, single 0.5 mg IV; for AUC: AUC0‐t; for AUC / Cmax: dose-normalized to 1 mg; for clearance: CL; for Vd: Vz; for half-life: t½
[4] = Renal impairment study: safety and tolerability; assay type: in vivo, human
[5] = assay type: in vivo, human; settings: for Tmax / AUC / clearance / Cmax / Vd / half-life: human, plasma, iv; for AUC: AUC0‐t; for AUC / clearance / Cmax / Vd / half-life: ESRD subjects, single 0.5 mg IV; for AUC / Cmax: dose-normalized to 1 mg; for clearance: CL; for Vd: Vz; for half-life: t½
[6] = Hepatic impairment study: safety and tolerability; assay type: in vivo, human
[7] = human, plasma, iv, arithmetic mean ± SD, mild hepatic impairment
[8] = human, plasma, iv, arithmetic mean ± SD, moderate hepatic impairment
[9] = human, plasma, iv, arithmetic mean ± SD, severe hepatic impairment
[10] = human, plasma, iv, geometric mean (%CVb), severe hepatic impairment
[11] = human, plasma, iv, geometric mean (%CVb), mild hepatic impairment
[12] = human, plasma, iv, geometric mean (%CVb), moderate hepatic impairment
[13] = ESRD subjects/healthy subjects, ANCOVA
[14] = ESRD subjects/healthy subjects, ANCOVA, dose-adjusted
[15] = mild hepatic impairment, 0.5 mg IV, 10 subjects
[16] = moderate hepatic impairment, 0.5 mg IV, 10 subjects
[17] = severe hepatic impairment, 0.5 mg IV, 6 subjects

COc1ccsc1CNCC[C@@]1(c2ccccn2)CCOC2(CCCC2)C1 [Oliceridine]
Share of the metabolites eliminated in the urine [1]: Approximately 70% | Free fraction [2]: 23% | CL, GM ratio Mild:Healthy (90%CI) ([3]; ANOVA): 1.05 (0.77, 1.43) | CL, GM ratio Moderate:Healthy (90%CI) ([3]; ANOVA): 0.80 (0.59, 1.09) | CL, GM ratio Severe:Healthy (90%CI) ([3]; ANOVA): 0.99 (0.71, 1.38) | t½, GM ratio Mild:Healthy (90%CI) ([3]; ANOVA): 1.26 (0.96, 1.66) | t½, GM ratio Moderate:Healthy (90%CI) ([3]; ANOVA): 2.09 (1.59, 2.75) | AUC0‐t, GM ratio Mild:Healthy (90%CI) ([3]; dose-normalized, ANOVA): 0.93 (0.68, 1.28) | AUC0‐∞, GM ratio Mild:Healthy (90%CI) ([3]; dose-normalized, ANOVA): 0.95 (0.70, 1.29) | AUC0‐∞, GM ratio Moderate:Healthy (90%CI) ([3]; dose-normalized, ANOVA): 1.25 (0.92, 1.70) | AUC0‐∞, GM ratio Severe:Healthy (90%CI) ([3]; dose-normalized, ANOVA): 1.01 (0.72, 1.41) | Cmax, GM ratio Mild:Healthy (90%CI) ([3]; dose-normalized, ANOVA): 1.19 (0.54, 2.60) | Cmax, GM ratio Moderate:Healthy (90%CI) ([3]; dose-normalized, ANOVA): 1.20 (0.55, 2.62) | Cmax, GM ratio Severe:Healthy (90%CI) ([3]; dose-normalized, ANOVA): 0.24 (0.10, 0.56) | AUC [3, 7]: 23.3 ± 7.9 ng·h/mL | AUC [3, 8]: 29.9 ± 11.3 ng·h/mL | AUC [3, 9]: 23.4 ± 10.3 ng·h/mL | AUC [3, 10]: 21.8 ng·h/mL | clearance [3, 7]: 807 mL/min | clearance [3, 8]: 595 mL/min | clearance [3, 9]: 738 mL/min | clearance [3, 11]: 742 mL/min | clearance [3, 12]: 565 mL/min | clearance [3, 10]: 697 mL/min | Cmax [3, 7]: 62.3 ± 48.8 ng/mL | Cmax [3, 8]: 46.6 ± 19.4 ng/mL | Cmax [3, 9]: 11.9 ± 10.6 ng/mL | Cmax [3, 11]: 41.4 ng/mL | Cmax [3, 12]: 41.9 ng/mL | Cmax [3, 10]: 8.4 ng/mL | Vd [3, 7]: 181 ± 81.2 L | Vd [3, 8]: 215 ± 39.1 L | Vd [3, 9]: 370 ± 130 L | Vd [3, 11]: 167 L | Vd [3, 12]: 212 L | Vd [3, 10]: 348 L | half-life [3, 7]: 2.7 ± 0.53 h | half-life [3, 8]: 4.7 ± 2.1 h | half-life [3, 9]: 6.3 ± 2.6 h | half-life [3, 11]: 2.6 h | half-life [3, 12]: 4.3 h | half-life [3, 10]: 5.8 h | AUC(0-t) ([3]; human, plasma, iv, 1 mg): 24.1 ± 7.5 ng·h/mL | At least 1 TEAE, no. of events ([4]; ESRD, 0.5 mg IV, 9 subjects): 2 no. of events | Dizziness, subjects ([4]; ESRD, 0.5 mg IV, 9 subjects): 0 | Euphoria, subjects ([4]; ESRD, 0.5 mg IV, 9 subjects): 0 | Fatigue, no. of events ([4]; ESRD, 0.5 mg IV, 9 subjects): 1 no. of events | Fatigue, subjects ([4]; ESRD, 0.5 mg IV, 9 subjects): 1 (11%) n (%) | Feeling of relaxation, subjects ([4]; ESRD, 0.5 mg IV, 9 subjects): 0 | Headache, subjects ([4]; ESRD, 0.5 mg IV, 9 subjects): 0 | Nausea, no. of events ([4]; ESRD, 0.5 mg IV, 9 subjects): 1 no. of events | Nausea, subjects ([4]; ESRD, 0.5 mg IV, 9 subjects): 1 (11%) n (%) | Pain in extremity, subjects ([4]; ESRD, 0.5 mg IV, 9 subjects): 0 | Subjects with TEAEs by maximum severity: Mild ([4]; ESRD, 0.5 mg IV, 9 subjects): 2 (22%) n (%) | Subjects with TEAEs by maximum severity: Moderate ([4]; ESRD, 0.5 mg IV, 9 subjects): 0 | Subjects with TEAEs by maximum severity: Severe ([4]; ESRD, 0.5 mg IV, 9 subjects): 0 | Subjects with at least 1 TEAE ([4]; ESRD, 0.5 mg IV, 9 subjects): 2 (22%) n (%) | TEAEs by maximum severity: Mild, no. of events ([4]; ESRD, 0.5 mg IV, 9 subjects): 2 no. of events | Total number of mild TEAEs, overall ([4]; all 17 subjects of the renal study): 11 | Subjects who experienced TEAEs, overall ([4]; all subjects of the renal study (6 of 17)): 35.3% | Dizziness, no. of events ([4]; healthy, 1 mg IV, 8 subjects): 1 no. of events | Dizziness, subjects ([4]; healthy, 1 mg IV, 8 subjects): 1 (12.5%) n (%) | Euphoria, no. of events ([4]; healthy, 1 mg IV, 8 subjects): 2 no. of events | Euphoria, subjects ([4]; healthy, 1 mg IV, 8 subjects): 2 (25%) n (%) | Fatigue, no. of events ([4]; healthy, 1 mg IV, 8 subjects): 2 no. of events | Fatigue, subjects ([4]; healthy, 1 mg IV, 8 subjects): 2 (25%) n (%) | Feeling of relaxation, no. of events ([4]; healthy, 1 mg IV, 8 subjects): 1 no. of events | Feeling of relaxation, subjects ([4]; healthy, 1 mg IV, 8 subjects): 1 (12.5%) n (%) | Headache, no. of events ([4]; healthy, 1 mg IV, 8 subjects): 1 no. of events | Headache, subjects ([4]; healthy, 1 mg IV, 8 subjects): 1 (12.5%) n (%) | Nausea, no. of events ([4]; healthy, 1 mg IV, 8 subjects): 3 no. of events | Nausea, subjects ([4]; healthy, 1 mg IV, 8 subjects): 2 (25%) n (%) | Pain in extremity, no. of events ([4]; healthy, 1 mg IV, 8 subjects): 1 no. of events | Pain in extremity, subjects ([4]; healthy, 1 mg IV, 8 subjects): 1 (12.5%) n (%) | Subjects with TEAEs by maximum severity: Mild ([4]; healthy, 1 mg IV, 8 subjects): 4 (50%) n (%) | Subjects with TEAEs by maximum severity: Moderate ([4]; healthy, 1 mg IV, 8 subjects): 0 | Subjects with TEAEs by maximum severity: Severe ([4]; healthy, 1 mg IV, 8 subjects): 0 | TEAEs by maximum severity: Mild, no. of events ([4]; healthy, 1 mg IV, 8 subjects): 9 no. of events | CL, ratio of geometric means [5, 13]: 81.2 | t½, ratio of geometric means [5, 13]: 128 | AUC0‐t, ratio of geometric means [5, 14]: 108 | AUC0‐∞, ratio of geometric means [5, 14]: 123 | Cmax, ratio of geometric means [5, 14]: 113 | Tmax ([5]; 0.5 mg): 0.25 h | AUC ([5]; 0.5 mg, arithmetic mean (SD)): 19.7 ng·h/mL | AUC ([5]; 0.5 mg, geometric mean (%CVb)): 19.1 ng·h/mL | clearance ([5]; 0.5 mg, arithmetic mean (SD)): 847 mL/min | clearance ([5]; 0.5 mg, geometric mean (%CVb)): 820 mL/min | Cmax ([5]; 0.5 mg, arithmetic mean (SD)): 9.96 ng/mL | Cmax ([5]; 0.5 mg, geometric mean (%CVb)): 9.87 ng/mL | Vd ([5]; 0.5 mg, arithmetic mean (SD)): 219 L | Vd ([5]; 0.5 mg, geometric mean (%CVb)): 212 L | half-life ([5]; 0.5 mg, arithmetic mean (SD)): 3.11 h | half-life ([5]; 0.5 mg, geometric mean (%CVb)): 2.99 h | Tmax ([5]; 1 mg): 0.25 h | At least 1 TEAE, no. of events ([6]; healthy, 1 mg IV, 8 subjects): 0 no. of events | Somnolence, no. of events ([6]; healthy, 1 mg IV, 8 subjects): 0 no. of events | Somnolence, subjects ([6]; healthy, 1 mg IV, 8 subjects): 0 (0%) n (%) | Subjects with TEAEs by maximum severity: Mild ([6]; healthy, 1 mg IV, 8 subjects): 0 (0%) n (%) | Subjects with TEAEs by maximum severity: Moderate ([6]; healthy, 1 mg IV, 8 subjects): 0 | Subjects with TEAEs by maximum severity: Severe ([6]; healthy, 1 mg IV, 8 subjects): 0 | Subjects with at least 1 TEAE ([6]; healthy, 1 mg IV, 8 subjects): 0 (0%) n (%) | TEAEs by maximum severity: Mild, no. of events ([6]; healthy, 1 mg IV, 8 subjects): 0 no. of events | Duration of somnolence TEAEs ([6]; mild hepatic impairment group, mild intensity, resolved completely): approximately 1 hour | At least 1 TEAE, no. of events [6, 15]: 2 no. of events | Somnolence, no. of events [6, 15]: 2 no. of events | Somnolence, subjects [6, 15]: 2 n (%) and 2 (20%) n (%) | Subjects with TEAEs by maximum severity: Mild [6, 15]: 2 (20%) n (%) | Subjects with TEAEs by maximum severity: Moderate [6, 15]: 0 | Subjects with TEAEs by maximum severity: Severe [6, 15]: 0 | Subjects with at least 1 TEAE [6, 15]: 2 (20%) n (%) | TEAEs by maximum severity: Mild, no. of events [6, 15]: 2 no. of events | At least 1 TEAE, no. of events [6, 16]: 0 no. of events | Somnolence, no. of events [6, 16]: 0 no. of events | Somnolence, subjects [6, 16]: 0 (0%) n (%) | Subjects with TEAEs by maximum severity: Mild [6, 16]: 0 (0%) n (%) | Subjects with TEAEs by maximum severity: Moderate [6, 16]: 0 | Subjects with TEAEs by maximum severity: Severe [6, 16]: 0 | Subjects with at least 1 TEAE [6, 16]: 0 (0%) n (%) | TEAEs by maximum severity: Mild, no. of events [6, 16]: 0 no. of events | At least 1 TEAE, no. of events [6, 17]: 0 no. of events | Somnolence, no. of events [6, 17]: 0 no. of events | Somnolence, subjects [6, 17]: 0 (0%) n (%) | Subjects with TEAEs by maximum severity: Mild [6, 17]: 0 (0%) n (%) | Subjects with TEAEs by maximum severity: Moderate [6, 17]: 0 | Subjects with TEAEs by maximum severity: Severe [6, 17]: 0 | Subjects with at least 1 TEAE [6, 17]: 0 (0%) n (%) | TEAEs by maximum severity: Mild, no. of events [6, 17]: 0 no. of events
